# Patent publication US20230183215A1, “Notch Inhibitors and Uses Thereof” (StemSynergy Therapeutics, Inc., priority 2020, published 2023)
# Structures can show the parent of a compound that is named as a salt.
# Key:
# [1] = test system: OE33 Esophageal Adenocarcinoma cell line; experiment: OE33 Colony Formation Assay; format: cell-based; details: Homo sapiens, 200 cells/well, compound every 48 hours for 7 days, CellTiter-Glo
# Method: OE33 Colony Formation Assay:
# The OE33 Esophageal Adenocarcinoma cell line was cultured and plated into 96-well tissue culture plates under sparse conditions (200 cells/well). Test compounds were serially diluted in DMSO and then into culture media (final DMSO concentration=0.1%). Compound/media was then added to cells every 48 hours for a total of 7 days. Clonogenic growth was assessed using the CellTiter-Glo reagent, according to manufacturer (Promega) specifications. Percent inhibition was calculated as the percent of luminescence normalized to control (0.1% DMSO) wells. Nonlinear regression curve fitting was performed using GraphPad Prism software to determine EC50's.
# Notch1 = biological target: T1, Notch1 (Homo sapiens, UniProt P46531); experiment: Notch1 Reporter Assay (CSL-responsive luciferase, doxycycline-induced Notch-ICD in 293A cells); format: cell-based; details: 25 ng/mL Dox, 24 h, luciferase normalized to cell viability
# T1 construct: pLV[Tet]-Puro-TRE3G>Notch1-ICD; expressed in transfected cells; host or cells: 293A cells
# Method: 293A cells expressing 1) pCMV-Tet-On 3G, 2) pLV[Tet]-Puro-TRE3G>Notch1-ICD, 3) pLV[Tet]-Puro-TRE3G>Notch2-ICD, 4) pLV[Tet]-Puro-TRE3G>Notch3-ICD, and 5) pCSL-RElement-Luc were used. When Doxycycline is added, the Tet-ON gene activates expression of hNotch1ICD, which together with endogenous NTC components binds to CSL responsive elements (pCSL-RElement-Luc) and expresses luciferase. 1×10^4 cells are plated in 100 μL (96-well format). 24 h later, compounds (10 mM stock in DMSO) are diluted in DMSO to 200×, then added (5 ul into 1 mL) to cell culture media containing 50 ng/mL Dox. This is then added 1:1 to cells. Final DMSO=0.25%, Dox=25 ng/mL. After 24 h, media is discarded, and cells are lysed in passive lysis buffer (Promega). Cells are rocked at room temperature for 15 min and then lysate is divided for luciferase assay (Luciferase Assay System, Promega) and cell viability (CellTiter Glo 2.0, Promega). Raw luciferase is normalized to cell viability, and then scaled to DMSO wells. Results are analyzed and IC50's are determined in GraphPad by nonlinear regression curve fitting (4 parameter) of dose response curves.
# T1 sequence (P46531 1754-2555 limits assumed): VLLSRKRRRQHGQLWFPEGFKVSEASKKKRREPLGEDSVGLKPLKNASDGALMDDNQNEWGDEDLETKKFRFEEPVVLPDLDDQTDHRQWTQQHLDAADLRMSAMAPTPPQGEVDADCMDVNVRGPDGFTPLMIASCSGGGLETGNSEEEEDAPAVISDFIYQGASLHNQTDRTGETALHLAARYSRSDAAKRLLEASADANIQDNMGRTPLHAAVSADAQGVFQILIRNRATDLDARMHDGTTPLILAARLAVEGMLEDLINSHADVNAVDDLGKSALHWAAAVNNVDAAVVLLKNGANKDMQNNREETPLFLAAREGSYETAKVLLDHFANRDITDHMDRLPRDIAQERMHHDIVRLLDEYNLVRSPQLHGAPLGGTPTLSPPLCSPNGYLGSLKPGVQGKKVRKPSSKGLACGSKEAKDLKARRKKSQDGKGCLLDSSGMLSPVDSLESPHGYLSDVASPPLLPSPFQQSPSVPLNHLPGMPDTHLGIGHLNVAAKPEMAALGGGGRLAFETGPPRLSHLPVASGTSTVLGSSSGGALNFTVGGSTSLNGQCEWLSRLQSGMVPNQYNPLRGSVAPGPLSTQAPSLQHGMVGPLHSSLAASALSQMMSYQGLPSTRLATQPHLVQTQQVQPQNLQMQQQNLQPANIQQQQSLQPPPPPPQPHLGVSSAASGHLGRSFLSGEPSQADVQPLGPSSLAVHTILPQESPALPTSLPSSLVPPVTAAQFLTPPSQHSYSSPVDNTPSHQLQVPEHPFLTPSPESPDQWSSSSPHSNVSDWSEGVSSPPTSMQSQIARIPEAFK
SMILES,EC50 [1],IC50 (Notch1)
"COc1cc(-c2cc(OC(F)(F)F)cc3c2n(C)c(=O)n3CC(=O)Nc2ccc(F)cc2)cc(F)c1OCc1nnc[nH]1 [SSTN-600, 2-(4-(4-((4H-1,2,4-triazol-3-yl)methoxy)-3-fluoro-5-methoxyphenyl)-3-methyl-2-oxo-6-(trifluoromethoxy)-2,3-dihydro-1H-benzo[d]imidazol-1-yl)-N-(4-fluorophenyl)acetamide hydrochloride salt]",6.6 µM,5.8 µM
"COc1cc(-c2cc(C(F)(F)F)cc3c2n(C)c(=O)n3CC(=O)Nc2cccc(N3CCN(C)CC3)c2)cc(F)c1OCc1nnc[nH]1 [SSTN-559, 2-(4-(4-((4H-1,2,4-triazol-3-yl)methoxy)-3-fluoro-5-methoxyphenyl)-3-methyl-2-oxo-6-(trifluoromethyl)-2,3-dihydro-1H-benzo[d]imidazol-1-yl)-N-(3-(4-methylpiperazin-1-yl)phenyl)acetamide]",4.3 µM,19.9 µM
"COc1cc(-c2cc(C(F)(F)F)cc3c2n(C)c(=O)n3CC(=O)Nc2cccc(C(F)(F)F)c2)cc(F)c1OCc1nnc[nH]1 [SSTN-495, 2-(4-(4-((4H-1,2,4-triazol-3-yl)methoxy)-3-fluoro-5-methoxyphenyl)-3-methyl-2-oxo-6-(trifluoromethyl)-2,3-dihydro-1H-benzo[d]imidazol-1-yl)-N-(3-(trifluoromethyl)phenyl)acetamide hydrochloride]",1.5 µM,4.3 µM
"COc1cc(-c2cc(C(F)(F)F)cc3c2n(C)c(=O)n3CC(=O)Nc2cccnc2F)cc(F)c1OCc1nnc[nH]1 [SSTN-612, 2-(4-(4-((4H-1,2,4-triazol-3-yl)methoxy)-3-fluoro-5-methoxyphenyl)-3-methyl-2-oxo-6-(trifluoromethyl)-2,3-dihydro-1H-benzo[d]imidazol-1-yl)-N-(2-fluoropyridin-3-yl)acetamide]",17.1 µM,13.2 µM
"COc1cc(-c2cc(C(F)(F)F)cc3c2n(C)c(=O)n3CC(=O)Nc2cccc(Cl)c2)cc(F)c1OCc1nnc[nH]1 [SSTN-490, 2-(4-(4-((4H-1,2,4-triazol-3-yl)methoxy)-3-fluoro-5-methoxyphenyl)-3-methyl-2-oxo-6-(trifluoromethyl)-2,3-dihydro-1H-benzo[d]imidazol-1-yl)-N-(3-chlorophenyl)acetamide hydrochloride]",1.7 µM,5.5 µM
"COc1cc(-c2cc(C(F)(F)F)cc3c2n(C)c(=O)n3CC(=O)N(C)c2ccc(F)cc2F)cc(F)c1OCc1nnc[nH]1 [compound 447, 2-(4-(4-((4H-1,2,4-triazol-3-yl)methoxy)-3-fluoro-5-methoxyphenyl)-3-methyl-2-oxo-6-(trifluoromethyl)-2,3-dihydro-1H-benzo[d]imidazol-1-yl)-N-(2,4-difluorophenyl)-N-methylacetamide hydrochloride]",2.8 µM,3.3 µM
"COc1cc(-c2cc(C(F)(F)F)cc3c2n(C)c(=O)n3CC(=O)Nc2ccc(OC(F)F)cc2)cc(F)c1OCc1nnc[nH]1 [SSTN-497, 2-(4-(4-((4H-1,2,4-triazol-3-yl)methoxy)-3-fluoro-5-methoxyphenyl)-3-methyl-2-oxo-6-(trifluoromethyl)-2,3-dihydro-1H-benzo[d]imidazol-1-yl)-N-(4-(difluoromethoxy)phenyl)acetamide hydrochloride]",2.9 µM,6.9 µM
"COc1cc(-c2cc(C(F)(F)F)cc3c2n(C)c(=O)n3CC(=O)Nc2ccc(S(C)(=O)=O)cc2)cc(F)c1OCc1nnc[nH]1 [SSTN-503, 2-(4-(4-((4H-1,2,4-triazol-3-yl)methoxy)-3-fluoro-5-methoxyphenyl)-3-methyl-2-oxo-6-(trifluoromethyl)-2,3-dihydro-1H-benzo[d]imidazol-1-yl)-N-(4-(methylsulfonyl)phenyl)acetamide hydrochloride]",8.4 µM,12.5 µM
"COc1ccccc1NC(=O)Cn1c(=O)n(C)c2c(-c3cc(F)c(OCc4nnc[nH]4)c(OC)c3)cc(C(F)(F)F)cc21 [SSTN-493, 2-(4-(4-((4H-1,2,4-triazol-3-yl)methoxy)-3-fluoro-5-methoxyphenyl)-3-methyl-2-oxo-6-(trifluoromethyl)-2,3-dihydro-1H-benzo[d]imidazol-1-yl)-N-(2-methoxyphenyl)acetamide hydrochloride]",2.4 µM,8.5 µM
"COCc1cccc(NC(=O)Cn2c(=O)n(C)c3c(-c4cc(F)c(OCc5nnc[nH]5)c(OC)c4)cc(C(F)(F)F)cc32)c1 [SSTN-548, 2-(4-(4-((4H-1,2,4-triazol-3-yl)methoxy)-3-fluoro-5-methoxyphenyl)-3-methyl-2-oxo-6-(trifluoromethyl)-2,3-dihydro-1H-benzo[d]imidazol-1-yl)-N-(3-(methoxymethyl)phenyl)acetamide]",2.3 µM,8.7 µM
"COc1cccc(NC(=O)Cn2c(=O)n(C)c3c(-c4cc(F)c(OCc5nnc[nH]5)c(OC)c4)cc(C(F)(F)F)cc32)c1 [SSTN-492, 2-(4-(4-((4H-1,2,4-triazol-3-yl)methoxy)-3-fluoro-5-methoxyphenyl)-3-methyl-2-oxo-6-(trifluoromethyl)-2,3-dihydro-1H-benzo[d]imidazol-1-yl)-N-(3-methoxyphenyl)acetamide hydrochloride]",6.6 µM,6.3 µM
"COc1cc(-c2cc(C(F)(F)F)cc3c2n(C)c(=O)n3CC(=O)Nc2cccc(-c3ccccc3)c2)cc(F)c1OCc1nnc[nH]1 [SSTN-546, 2-(4-(4-((4H-1,2,4-triazol-3-yl)methoxy)-3-fluoro-5-methoxyphenyl)-3-methyl-2-oxo-6-(trifluoromethyl)-2,3-dihydro-1H-benzo[d]imidazol-1-yl)-N-([1,1′-biphenyl]-3-yl)acetamide]",3.6 µM,4.2 µM
"COc1cc(-c2cc(C(F)(F)F)cc3c2n(C)c(=O)n3CC(=O)N(c2ccc(F)cc2)C2CC2)cc(F)c1OCc1nnc[nH]1 [SSTN-543, 2-(4-(4-((4H-1,2,4-triazol-3-yl)methoxy)-3-fluoro-5-methoxyphenyl)-3-methyl-2-oxo-6-(trifluoromethyl)-2,3-dihydro-1H-benzo[d]imidazol-1-yl)-N-cyclopropyl-N-(4-fluorophenyl)acetamide]",2.9 µM,4.7 µM
"COc1cc(-c2cc(C(F)(F)F)cc3c2n(C)c(=O)n3CC(=O)Nc2cccc(F)c2)cc(F)c1OCc1nnc[nH]1 [SSTN-496, 2-(4-(4-((4H-1,2,4-triazol-3-yl)methoxy)-3-fluoro-5-methoxyphenyl)-3-methyl-2-oxo-6-(trifluoromethyl)-2,3-dihydro-1H-benzo[d]imidazol-1-yl)-N-(3-fluorophenyl)acetamide hydrochloride]",3.7 µM,6 µM
"COc1cc(-c2cc(C(F)(F)F)cc3c2n(C2CC2)c(=O)n3CC(=O)N(C)c2ccc(F)cc2)cc(F)c1OCc1nnc[nH]1 [compound 464, 2-(4-(4-((4H-1,2,4-triazol-3-yl)methoxy)-3-fluoro-5-methoxyphenyl)-3-cyclopropyl-2-oxo-6-(trifluoromethyl)-2,3-dihydro-1H-benzo[d]imidazol-1-yl)-N-(4-fluorophenyl)-N-methylacetamide hydrochloride]",1.3 µM,1.7 µM
